# Tested on: dorsal forearm skin of healthy female Caucasian subjects with mild to moderate photo damage
# Experiment: In vivo biopsy, histology of treated dorsal forearm skin
# Design: species or system human
# Conditions: 3 weeks semi-occlusion patch, 2 mg/cm^2, extract 0.33%, retinol 0.05% active
# Experimental: Healthy female Caucasian subjects aged 30-65, with skin type II or III and mild to moderate photo damage, were treated on the dorsal forearm for 3 weeks (3 consecutive rounds of 5×24 hour) under semi-occlusion patches. Test articles including active ingredients, vehicle controls, and retinol were applied in a randomized allocation on 6 sites on each forearm. The application dose was 2 mg/cm^2. After 3 week treatment, a 2 mm punch biopsy was obtained from each treatment site and fixed in 10% buffered formalin. Tissue samples then embedded in paraffin, sectioned (5 μm thickness), and stained for skin markers after re-hydration. […] Retinol at a active concentration of 0.05% was used a positive control. Retinol use at a 0.05% active concentration in the semi-occlusion patch vehicle formulation yielded a visual score of approximately 0.56 out of a 4 point scale in HE staining (measuring hematoxylin and eosin staining, an indication of viable epidermal thickness and health) with 63.6% of the subjects showing an improvement; a visual score of 0.6 out of a 4 point scale in M-TC staining (Masson's trichrome staining, assessing total mature fiber-forming collagen in the dermis—mainly Collagen I, […] and Collagen V) with 51.6% of the subjects showing an improvement; a visual score of 0.52 out of a 4 point scale for pro-Col (measuring new synthesis of Collagen I by skin fibroblasts in the dermis) with 51.6% of the subjects showing an improvement; and a visual score of 0.57 out of a 4 point scale for HA (measuring level of hyaluronic acid in both dermis and epidermis) with 50% of the subjects showing an improvement.
smiles,measurement,setting,value
CC1=C(/C=C/C(C)=C/C=C/C(C)=C/CO)C(C)(C)CCC1 [Retinol],"subjects showing an improvement, HA",,50%
same,"subjects showing an improvement, HE staining",,63.6%
same,"subjects showing an improvement, M-TC staining",,51.6%
same,"subjects showing an improvement, pro-Col",,51.6%
same,visual score for HA (level of hyaluronic acid in both dermis and epidermis),out of a 4 point scale,0.57
same,visual score for pro-Col (new synthesis of Collagen I by skin fibroblasts in the dermis),out of a 4 point scale,0.52
same,visual score in HE staining (viable epidermal thickness and health),out of a 4 point scale,approximately 0.56
same,visual score in M-TC staining (total mature fiber-forming collagen in the dermis),out of a 4 point scale,0.6
